Structures can show the parent of a compound that is named as a salt. Where two headings read alike, the source gives them in different places.
Experiments:
Assay type in all cases: biochemical
[1] = target: T1, Recombinant Human Anaplastic Lymphoma Kinase (Homo sapiens, UniProt Q9UM73); assay: ALK HTRF kinase assay
T1 construct: purchased Invitrogen, Carlsbad, Calif
Summary of the method: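 Readout was HTRF between a Eu-W1024 anti-phosphotyrosine antibody and streptavidin-APC bound to biotinylated peptide phosphorylated by recombinant human ALK. IC50 values came from a four-parameter logistic fit.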

[2] = target: TYK2 (Homo sapiens, UniProt P29597); assay: TYK2 kinase inhibition (Table A1)
TYK2, sequence (P29597 whole entry): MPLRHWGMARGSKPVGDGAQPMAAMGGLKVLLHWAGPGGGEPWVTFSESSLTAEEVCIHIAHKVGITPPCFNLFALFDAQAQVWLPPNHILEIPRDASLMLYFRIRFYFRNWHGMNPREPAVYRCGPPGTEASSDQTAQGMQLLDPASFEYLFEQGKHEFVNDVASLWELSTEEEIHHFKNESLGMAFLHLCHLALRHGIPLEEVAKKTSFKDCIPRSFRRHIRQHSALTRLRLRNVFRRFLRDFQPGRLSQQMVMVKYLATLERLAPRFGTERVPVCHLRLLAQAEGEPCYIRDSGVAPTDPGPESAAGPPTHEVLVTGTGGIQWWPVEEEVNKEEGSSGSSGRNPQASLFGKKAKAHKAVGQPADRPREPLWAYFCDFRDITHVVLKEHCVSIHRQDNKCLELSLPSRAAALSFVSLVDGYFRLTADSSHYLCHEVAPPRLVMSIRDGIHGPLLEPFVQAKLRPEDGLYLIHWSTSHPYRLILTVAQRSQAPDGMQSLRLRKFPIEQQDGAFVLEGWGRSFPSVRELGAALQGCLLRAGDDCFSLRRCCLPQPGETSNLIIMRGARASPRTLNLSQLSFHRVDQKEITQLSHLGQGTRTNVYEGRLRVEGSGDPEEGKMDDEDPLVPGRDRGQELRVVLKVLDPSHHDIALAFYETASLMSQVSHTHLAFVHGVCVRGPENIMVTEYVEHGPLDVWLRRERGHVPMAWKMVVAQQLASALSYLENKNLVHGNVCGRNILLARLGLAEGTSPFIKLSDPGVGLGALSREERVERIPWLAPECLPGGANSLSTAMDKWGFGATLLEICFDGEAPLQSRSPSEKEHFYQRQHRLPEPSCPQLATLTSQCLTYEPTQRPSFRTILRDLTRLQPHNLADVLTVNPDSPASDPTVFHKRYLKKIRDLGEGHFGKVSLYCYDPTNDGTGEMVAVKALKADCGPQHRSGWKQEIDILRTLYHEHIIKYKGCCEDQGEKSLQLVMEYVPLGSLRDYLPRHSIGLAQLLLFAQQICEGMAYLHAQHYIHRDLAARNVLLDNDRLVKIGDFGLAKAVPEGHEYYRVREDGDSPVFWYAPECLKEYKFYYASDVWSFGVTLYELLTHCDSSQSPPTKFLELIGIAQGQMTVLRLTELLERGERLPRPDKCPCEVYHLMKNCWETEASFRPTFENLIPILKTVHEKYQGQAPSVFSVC

[3] = target: T2, human JAK1 (a.a. 837-1142) (Homo sapiens, UniProt P23458); assay: In vitro JAK kinase assay (HTRF, phosphorylation of a biotinylated peptide), JAK1; conditions: read-out: JAK1 IC50
T2 construct: human JAK1 (a.a. 837-1142); His tag (N); made in house; host or cells: insect cells (baculovirus)
T2 sequence (P23458 849-1154): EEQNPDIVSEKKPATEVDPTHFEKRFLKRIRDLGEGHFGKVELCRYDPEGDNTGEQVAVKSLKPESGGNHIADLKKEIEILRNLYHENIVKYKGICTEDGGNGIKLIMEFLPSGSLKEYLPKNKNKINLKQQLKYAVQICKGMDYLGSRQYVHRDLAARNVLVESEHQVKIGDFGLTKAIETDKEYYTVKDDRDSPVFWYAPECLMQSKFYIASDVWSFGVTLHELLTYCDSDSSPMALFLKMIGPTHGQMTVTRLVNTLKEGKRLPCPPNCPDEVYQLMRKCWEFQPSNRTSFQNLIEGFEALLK
Summary of the method: (§1)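 Phosphorylation of a biotinylated peptide by the JAK kinase domain, detected by HTRF with Eu-Py20 and SA-APC. ATP was 90 μM for JAK1, 30 μM for JAK2 and 3 μM for JAK3. Reactions ran 1 h at room temperature and were stopped with EDTA, followed by 40 min antibody binding.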

[4] = target: T3, human JAK3 (a.a. 781-1124) (Homo sapiens, UniProt P52333); assay: In vitro JAK kinase assay (HTRF, phosphorylation of a biotinylated peptide), JAK3
T3 construct: JAK3 (a.a. 781-1124); His tag (N); made in house; host or cells: insect cells (baculovirus)
T3 sequence (P52333 781-1124): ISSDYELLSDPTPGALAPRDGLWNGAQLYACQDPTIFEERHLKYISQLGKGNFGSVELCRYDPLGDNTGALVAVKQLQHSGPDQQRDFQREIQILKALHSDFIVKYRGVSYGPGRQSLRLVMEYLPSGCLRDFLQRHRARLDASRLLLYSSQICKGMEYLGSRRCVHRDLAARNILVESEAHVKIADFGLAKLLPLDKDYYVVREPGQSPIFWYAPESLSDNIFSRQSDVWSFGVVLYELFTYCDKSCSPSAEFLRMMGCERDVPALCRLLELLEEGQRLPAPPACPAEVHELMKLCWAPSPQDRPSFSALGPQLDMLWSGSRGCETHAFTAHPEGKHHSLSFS
Summary of the method: as §1

[5] = target: T4, human JAK2 (a.a. 828-1132) (Homo sapiens, UniProt O60674); assay: In vitro JAK kinase assay (HTRF, phosphorylation of a biotinylated peptide), JAK2
T4 construct: JAK2 (a.a. 828-1132); His tag (N); made in house; host or cells: insect cells (baculovirus)
T4 sequence (O60674 828-1132): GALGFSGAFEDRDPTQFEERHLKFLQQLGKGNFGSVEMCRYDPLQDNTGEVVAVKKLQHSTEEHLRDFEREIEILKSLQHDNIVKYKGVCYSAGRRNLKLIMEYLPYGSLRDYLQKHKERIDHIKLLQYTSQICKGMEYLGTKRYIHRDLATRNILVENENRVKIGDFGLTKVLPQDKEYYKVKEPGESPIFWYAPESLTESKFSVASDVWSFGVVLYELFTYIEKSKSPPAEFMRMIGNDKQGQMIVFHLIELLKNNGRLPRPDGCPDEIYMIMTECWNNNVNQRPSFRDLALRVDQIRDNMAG
Summary of the method: as §1

[6] = compound at a concentration of 500 nM or 1 mM (not specified), cells shown as percentage
[7] = compound at 500 nM or 1 mM, 90 μM ATP
[8] = method AA1 (90 μM ATP) or AA2 (1000 μM ATP), not stated per value
[9] = method AA1 (3 μM ATP) or AA2 (1000 μM ATP), not stated per value
[10] = method AA1 (30 μM ATP) or AA2 (1000 μM ATP), not stated per value
[11] = Table B1, cells without percent sign

T1 sequence (Q9UM73 19-1620): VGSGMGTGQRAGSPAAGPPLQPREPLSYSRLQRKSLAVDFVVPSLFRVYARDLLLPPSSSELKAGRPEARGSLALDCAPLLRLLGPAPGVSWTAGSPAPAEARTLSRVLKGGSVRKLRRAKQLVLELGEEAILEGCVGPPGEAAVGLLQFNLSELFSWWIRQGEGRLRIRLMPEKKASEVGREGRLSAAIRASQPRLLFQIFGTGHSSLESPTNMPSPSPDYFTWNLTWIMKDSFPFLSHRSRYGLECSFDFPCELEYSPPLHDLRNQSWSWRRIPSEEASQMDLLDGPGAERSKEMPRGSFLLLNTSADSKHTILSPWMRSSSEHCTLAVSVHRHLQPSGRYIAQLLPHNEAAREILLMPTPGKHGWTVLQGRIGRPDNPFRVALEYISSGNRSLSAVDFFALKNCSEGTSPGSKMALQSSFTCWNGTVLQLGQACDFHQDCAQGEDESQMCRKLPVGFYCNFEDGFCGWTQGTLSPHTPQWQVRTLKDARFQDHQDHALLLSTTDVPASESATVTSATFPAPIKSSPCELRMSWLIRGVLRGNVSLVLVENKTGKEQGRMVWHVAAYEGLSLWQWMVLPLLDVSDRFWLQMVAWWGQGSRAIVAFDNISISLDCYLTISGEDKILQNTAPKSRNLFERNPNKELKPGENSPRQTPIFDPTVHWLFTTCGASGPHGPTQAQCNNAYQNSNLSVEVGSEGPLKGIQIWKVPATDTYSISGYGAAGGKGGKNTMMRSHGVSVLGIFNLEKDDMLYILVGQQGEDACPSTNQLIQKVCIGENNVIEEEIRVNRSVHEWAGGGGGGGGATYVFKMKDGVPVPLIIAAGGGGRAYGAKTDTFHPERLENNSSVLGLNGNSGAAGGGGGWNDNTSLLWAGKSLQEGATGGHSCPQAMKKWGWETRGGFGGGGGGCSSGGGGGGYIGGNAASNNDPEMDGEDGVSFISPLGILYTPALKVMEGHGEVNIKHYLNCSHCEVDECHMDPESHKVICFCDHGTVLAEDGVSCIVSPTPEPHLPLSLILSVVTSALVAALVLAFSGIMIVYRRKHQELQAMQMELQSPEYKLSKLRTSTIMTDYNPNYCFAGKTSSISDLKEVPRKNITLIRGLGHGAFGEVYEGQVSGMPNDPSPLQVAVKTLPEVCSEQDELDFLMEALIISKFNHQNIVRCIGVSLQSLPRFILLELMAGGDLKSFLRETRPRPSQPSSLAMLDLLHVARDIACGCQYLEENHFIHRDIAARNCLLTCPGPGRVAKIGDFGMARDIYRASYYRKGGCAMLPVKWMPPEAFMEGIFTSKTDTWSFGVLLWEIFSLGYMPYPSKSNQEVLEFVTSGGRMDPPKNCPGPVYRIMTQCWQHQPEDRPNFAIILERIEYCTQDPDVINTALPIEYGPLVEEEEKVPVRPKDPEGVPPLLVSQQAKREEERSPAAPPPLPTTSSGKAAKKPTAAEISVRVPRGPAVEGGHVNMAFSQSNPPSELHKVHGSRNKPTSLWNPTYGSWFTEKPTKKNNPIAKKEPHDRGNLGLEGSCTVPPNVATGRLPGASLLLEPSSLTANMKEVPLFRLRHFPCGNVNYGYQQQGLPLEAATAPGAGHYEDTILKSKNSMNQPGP

## O=C(Nc1ccc2cc1CCc1cncc(c1)Nc1ncc(Cl)c(n1)N2)N1CCN(c2ccccc2Cl)CC1 [Example B305, N-[6-Chloro-2,4,8,18,22-pentaazatetracyclo[14.3.1.1(3,7).1(9,13)]docosa-1(20),3(22),4,6,9(21),10,12,16,18-nonaen-12-yl]-4-(2-chlorophenyl)piperazine-1-carboxamide bis(trifluoroacetate)]
[1]; percentage inhibition of the example compound at a concentration of 500 nM or 1 mM (not specified which)
  ALK % of inhibition at a concentration of 500 nM or 1 mM: 79%
[2]; Table B1
  IC50: 38 nM
[3]; Table B1
  IC50: 15 nM
[4]; Table B1
  IC50: > 400 nM
[5]; Table B1
  IC50: 148 nM

## O=C(Nc1ccc2cc1CCc1cncc(c1)Nc1ncc(Cl)c(n1)N2)N[C@H]1CCN(C(=O)c2ccno2)C1 [Example B271, N-[6-Chloro-2,4,8,18,22-pentaazatetracyclo[14.3.1.1(3,7).1(9,13)]docosa-1(20),3(22),4,6,9(21),10,12,16,18-nonaen-12-yl]-N′-[(3S)-1-(isoxazol-5-ylcarbonyl)pyrrolidin-3-yl]urea bis(trifluoroacetate)]
[1]; [6]
  ALK % of inhibition at a concentration of 500 nM or 1 mM: 10%
[2]; Table B1
  IC50: 847 nM
[3]; Table B1
  IC50: 8.7 nM
[4]; Table B1
  IC50: > 10000 nM
[5]; Table B1
  IC50: 440 nM

## O=C(CC1CCNCC1)Nc1ccc2cc1CCc1cccc(c1)Nc1ncc(Cl)c(n1)N2 [Example A46, N-[6-Chloro-2,4,8,22-tetraazatetracyclo[14.3.1.1(3,7).1(9,13)]docosa-1(20), 3(22),4,6,9(21),10,12,16,18-nonaen-12-yl]-2-piperidin-4-ylacetamide bis(trifluoroacetate)]
[1]; [7]
  ALK % of inhibition at a concentration of 500 nM or 1 mM: 20%
[2]
  IC50: 42 nM
[3]; [8]
  IC50: 10 nM
[4]; [9]
  IC50: 49 nM
[5]; [10]
  IC50: 16 nM

## CN1c2cccc(c2)OCCc2cccc(c2)Nc2ncc(Cl)c1n2 [Example D9, 6-Chloro-8-methyl-14-oxa-2,4,8,23-tetraazatetracyclo[15.3.1.1(3,7).1(9,13)]tricosa-1(21),3(23),4,6,9(22),10,12,17,19-nonaene trifluoroacetate]
[1]; Table D1, 90 μM ATP
  IC50: > 952 nM
[2]; Table D1
  IC50: 137 nM
[3]; Table D1
  IC50: 183 nM
[4]; Table D1
  IC50: 489 nM
[5]; Table D1
  IC50: 47 nM

## CN(C(=O)Nc1ccc2cc1CCc1cncc(c1)Nc1ncc(Cl)c(n1)N2)[C@H]1CCN(Cc2ccccc2)C1 [Example B284, N-[(3S)-1-Benzylpyrrolidin-3-yl]-N′-[6-chloro-2,4,8,18,22-pentaazatetracyclo[14.3.1.1(3,7).1(9,13)]docosa-1(20),3(22),4,6,9(21),10,12,16,18-nonaen-12-yl]-N-methylurea]
[1]; [6]
  ALK % of inhibition at a concentration of 500 nM or 1 mM: 25%
[2]; Table B1
  IC50: 409 nM
[3]; Table B1
  IC50: 72 nM
[4]; Table B1
  IC50: > 1000 nM
[5]; Table B1
  IC50: 368 nM

## Nc1ccc2cc1CCc1cccc(c1)Nc1ncc(Cl)c(n1)N2 [Example B19, 6-Chloro-2,4,8,22-tetraazatetracyclo[14.3.1.1(3,7).1(9,13)]docosa-1(20),3(22),4,6,9(21),10,12,16,18-nonaen-12-amine dihydrochloride]
[1]; [11]
  IC50: 610 nM
[2]; Table B1
  IC50: 2.5 nM
[3]; Table B1
  IC50: 1.3 nM
[4]; Table B1
  IC50: 7.5 nM
[5]; Table B1
  IC50: 0.97 nM

## O=C(Nc1ccc2cc1CCc1cccc(c1)Nc1ncc(Cl)c(n1)N2)c1ccc(Cl)cc1 [Example B43, 4-Chloro-N-[6-chloro-2,4,8,22-tetraazatetracyclo[14.3.1.1(3,7).1(9,13)]docosa-1(20),3(22),4,6,9(21),10,12,16,18-nonaen-12-yl]benzamide hydrochloride]
[1]; [11]
  IC50: 170 nM
[2]; Table B1
  IC50: 2.9 nM
[3]; Table B1
  IC50: 0.79 nM
[4]; Table B1
  IC50: 6.7 nM
[5]; Table B1
  IC50: 1.1 nM

## O=C(Nc1ccc2cc1CCc1cccc(c1)Nc1ncc(Cl)c(n1)N2)C1CCC1 [Example B57, N-[6-Chloro-2,4,8,22-tetraazatetracyclo[14.3.1.1(3,7).1(9,13)]docosa-1(20), 3(22),4,6,9(21),10,12,16,18-nonaen-12-yl]cyclobutanecarboxamide hydrochloride]
[1]; [11]
  IC50: 2200 nM
[2]; Table B1
  IC50: 39 nM
[3]; Table B1
  IC50: 12 nM
[4]; Table B1
  IC50: 18 nM
[5]; Table B1
  IC50: 5.3 nM

## O=C(CC1CCN(C(=O)c2ccc(F)cc2F)CC1)Nc1ccc2cc1CCc1cncc(c1)Nc1ncc(Cl)c(n1)N2 [Example A194, N-[6-Chloro-2,4,8,18,22-pentaazatetracyclo[14.3.1.1(3,7).1(9,13)]docosa-1(20),3(22),4,6,9(21),10,12,16,18-nonaen-12-yl]-2-[1-(2,4-difluorobenzoyl)piperidin-4-yl]acetamide bis(trifluoroacetate)]
[1]; [7]
  ALK % of inhibition at a concentration of 500 nM or 1 mM: 31%
[2]
  IC50: > 200 nM
[3]; [8]
  IC50: 7.3 nM
[4]; [9]
  IC50: > 200 nM
[5]; [10]
  IC50: 150 nM

## CS(=O)(=O)N1CC[C@@H](NC(=O)Nc2ccc3cc2CCc2cccc(c2)Nc2ncc(Cl)c(n2)N3)C1 [Example B178, N-[6-Chloro-2,4,8,22-tetraazatetracyclo[14.3.1.1(3,7).1(9,13)]docosa-1(20),3(22),4,6,9(21),10,12,16,18-nonaen-12-yl]-N′-[(3R)-1-(methylsulfonyl)pyrrolidin-3-yl]urea trifluoroacetate]
[1]; [6]
  ALK % of inhibition at a concentration of 500 nM or 1 mM: 24%
[2]; Table B1
  IC50: 2.6 nM
[3]; Table B1
  IC50: 0.82 nM
[4]; Table B1
  IC50: 17 nM
[5]; Table B1
  IC50: 1.1 nM

## O=C(CC1CCN(C(=O)c2c[nH]nn2)CC1)Nc1ccc2cc1CCc1cncc(c1)Nc1ncc(Cl)c(n1)N2 [Example A137, N-[6-Chloro-2,4,8,18,22-pentaazatetracyclo[14.3.1.1(3,7).1(9,13)]docosa-1(20),3(22),4,6,9(21),10,12,16,18-nonaen-12-yl]-2-[1-(1H-1,2,3-triazol-4-ylcarbonyl)piperidin-4-yl]acetamide bis(trifluoroacetate)]
[1]; [7]
  ALK % of inhibition at a concentration of 500 nM or 1 mM: 54%
[2]
  IC50: 1 nM
[3]; [8]
  IC50: 0.6 nM
[4]; [9]
  IC50: 41 nM
[5]; [10]
  IC50: 3 nM

## CC(=O)N1CC[C@@H](NC(=O)Nc2ccc3cc2CCc2cccc(c2)Nc2ncc(Cl)c(n2)N3)C1 [Example B177, N-[(3R)-1-Acetylpyrrolidin-3-yl]-N′-[6-chloro-2,4,8,22-tetraazatetracyclo[14.3.1.1(3,7).1(9,13)]docosa-1(20),3(22),4,6,9(21),10,12,16,18-nonaen-12-yl]urea trifluoroacetate]
[1]; [6]
  ALK % of inhibition at a concentration of 500 nM or 1 mM: 20%
[2]; Table B1
  IC50: 39 nM
[3]; Table B1
  IC50: 3.1 nM
[4]; Table B1
  IC50: 46 nM
[5]; Table B1
  IC50: 5.4 nM

## O=C(NCCN1CCNCC1)Nc1ccc2cc1CCc1cccc(c1)Nc1ncc(Cl)c(n1)N2 [Example B260, N-[6-Chloro-2,4,8,22-tetraazatetracyclo[14.3.1.1(3,7).1(9,13)]docosa-1(20),3(22),4,6,9(21),10,12,16,18-nonaen-12-yl]-N′-(2-piperazin-1-ylethyl)urea trihydrochloride]
[1]; [6]
  ALK % of inhibition at a concentration of 500 nM or 1 mM: 26%
[2]; Table B1
  IC50: 20 nM
[3]; Table B1
  IC50: 4.7 nM
[4]; Table B1
  IC50: 51 nM
[5]; Table B1
  IC50: 9.9 nM

## N#Cc1ccnc(N2CCC(CC(=O)Nc3ccc4cc3CCc3cncc(c3)Nc3ncc(Cl)c(n3)N4)CC2)c1 [Example A178, N-[6-Chloro-2,4,8,18,22-pentaazatetracyclo[14.3.1.1(3,7).1(9,13)]docosa-1(20),3(22),4,6,9(21),10,12,16,18-nonaen-12-yl]-2-[1-(4-cyanopyridin-2-yl)piperidin-4-yl]acetamide tris(trifluoroacetate)]
[1]; [7]
  ALK % of inhibition at a concentration of 500 nM or 1 mM: 26%
[2]
  IC50: > 200 nM
[3]; [8]
  IC50: 68 nM
[4]; [9]
  IC50: > 200 nM
[5]; [10]
  IC50: > 200 nM

## Clc1cnc2nc1Nc1cccc(c1)NCCCc1cccc(c1)N2 [Example D75, 6-Chloro-2,4,8,14,24-pentaazatetracyclo[16.3.1.1(3,7).1(9,13)]tetracosa-1(22),3(24),4,6,9(23),10,12,18,20-nonaene bis(trifluoroacetate)]
[1]; Table D1, 90 μM ATP
  IC50: 1250 nM
[2]; Table D1
  IC50: 60 nM
[3]; Table D1
  IC50: 50 nM
[4]; Table D1
  IC50: 80 nM
[5]; Table D1
  IC50: 26 nM

## N#CCC(=O)N1CCC(CC(=O)Nc2ccc3cc2CCc2cncc(c2)Nc2ncc(Cl)c(n2)N3)CC1 [Example A245, N-[6-Chloro-2,4,8,18,22-pentaazatetracyclo[14.3.1.1(3,7).1(9,13)]docosa-1(20),3(22),4,6,9(21),10,12,16,18-nonaen-12-yl]-2-[1-(cyanoacetyl)piperidin-4-yl]acetamide bis(trifluoroacetate)]
[1]; [7]
  ALK % of inhibition at a concentration of 500 nM or 1 mM: 47%
[2]
  IC50: 41 nM
[3]; [8]
  IC50: 3.2 nM
[4]; [9]
  IC50: > 400 nM
[5]; [10]
  IC50: 117 nM

## CC(C)(C)OC(=O)NCCNC(=O)Nc1ccc2cc1CCc1cccc(c1)Nc1ncc(Cl)c(n1)N2 [Example B185, tert-Butyl {2-[({[6-chloro-2,4,8,22-tetraazatetracyclo[14.3.1.1(3,7).1(9,13)]docosa-1(20),3(22),4,6,9(21),10,12,16,18-nonaen-12-yl]amino}carbonyl)amino]ethyl}carbamate]
[1]; [6]
  ALK % of inhibition at a concentration of 500 nM or 1 mM: 12%
[2]; Table B1
  IC50: 4 nM
[3]; Table B1
  IC50: 0.62 nM
[4]; Table B1
  IC50: 46 nM
[5]; Table B1
  IC50: 3.9 nM

Reference: US8871753B2, “Macrocyclic compounds and their use as kinase inhibitors” (Incyte Corporation, priority 2008, dated 2014)
